Test results published in US20050118624A1, “Fluorescent probes for ribosomes and method of use” (Cumbre Inc., priority 2003, published 2005).

Key:
[1] = tested on: 70S Ribosome; assay: Fluorescence polarization competition with Probe 203 bound to ribosomes; assay type: binding, E. coli; settings: for IC50: compound titrated 400 μM to 1.5 nM, ribosome 150-200% above Kd, read-out: IC50 for competing out Probe 203
[2] = target: 70S Ribosome; assay: Fluorescence polarization titration of probe binding affinity and kinetics; parameters: species or system E. coli; settings: for binding affinity compared with Probe 203 / binding kinetics compared with Probe 203: summarized in FIG. 39

CC[C@H]1OC(=O)[C@H](C)[C@@H](O[C@H]2C[C@@](C)(OC)[C@@H](O)[C@H](C)O2)[C@H](C)[C@@H](O[C@@H]2O[C@H](C)C[C@H](N(C)C)[C@H]2O)[C@](C)(O)C[C@@H](C)C(=O)[C@H](C)[C@@H](O)[C@]1(C)O [Erythromycin]
IC50 [1]: 0.03 µM

COc1ccc(C[C@H](N)C(=O)N[C@H]2[C@@H](O)[C@H](n3cnc4c(N(C)C)ncnc43)O[C@@H]2CO)cc1 [puromycin]
competition with Probe 203 ([1]; antibiotic binding to more distant region of the ribosome): did not show competition

4″-Bodipy FL-aminoethylcarbamate clarithromycin [Probe 242]
binding affinity compared with Probe 203 ([2]; fluorescence polarization): greater affinity | binding kinetics compared with Probe 203 ([2]; fluorescence polarization): even slower kinetics

O=C(N[C@H](CO)[C@H](O)c1ccc([N+](=O)[O-])cc1)C(Cl)Cl [Chloramphenicol]
IC50 [1]: 19 µM

9-benzyloxycarbonylamino-4″-Bodipy FL aminoethylcarbamate erythromycin [Probe 238]
binding affinity compared with Probe 203 ([2]; fluorescence polarization): greater affinity | binding kinetics compared with Probe 203 ([2]; fluorescence polarization): even slower kinetics

9-(4,4-difluoro-5,7-dimethyl-4-bora-3a,4a-diaza-s-indacene-3-propionyl)-amino-erythromycin [Probe 203]
incubation time to reach binding equilibrium ([2]; fluorescence polarization read at various time points): greater than a half hour | affinity for ribosomes compared with values reported in the literature for the parent erythromycin ([2]; fluorescence polarization, ribosome titration 1650 nM to 0.4 nM, buffer with 20% glycerol): slightly reduced affinity
